Results reported in US8487095B2, “Acid addition salts, hydrates and polymorphs of 5-(2,4-dihydroxy-5-iso-propyl-phenyl)-4-(4-morpholin-4-ylmethyl-phenyl)-isoxazole-3-carboxylic acid ethylamide and formulations comprising these forms” (priority 2007, dated 2013).
Counter-ions that a name gives are not always drawn. Like-named read-outs stand apart in the source and are kept apart here.

Assays:
[1] = Solubility of the free base and its salts (description); type: physicochemical
[2] = clinical, humans; cited from earlier work
[3] = cited from earlier work
[4] = Hygroscopicity by Dynamic Water Sorption (DVS); type: physicochemical; settings: 25° C.; for found to be hygroscopic: DVS, 'Neither' = not hygroscopic
Protocol: Hygroscopicity is measured using a Dynamic Water Sorption (DVS) apparatus. Measurements are performed at 25° C. using about 8-10 mg of substance. The r.h. is changed in steps of 10% r.h. as follows: 40-0-95-0-40% r.h. The minimum stage time is 60 min, the maximum 180 min, if the change in mass of 10 min is less than 0.002%/min, the r.h. is changed to the next step.

[5] = Equilibration in suspension (polymorphism); type: physicochemical; settings: over a range of applied conditions
Description: Lack of polymorphism is a beneficial property for a solid form designated to be developed as a medicament.

[6] = Solubility of the mesylate salt in different aqueous media (Example 7); type: physicochemical
Protocol: The solubility of the 5-(2,4-dihydroxy-5-isopropyl-phenyl)-4-(4-morpholin-4-ylmethyl-phenyl)-isoxazole-3-carboxylic acid ethylamide (AUY922) mesylate salt in different aqueous media were determined and found to be as follows: […]

Light sensitivity = type: physicochemical; settings: as solid as well as in solution
[7] = Stress tests in solution or suspensions, 4 weeks at 50° C. (Example 8); type: physicochemical
Protocol: The stability of the AUY922 mesylate salt in different aqueous media were determined under stress conditions (4 weeks at 50° C.) and the following appearance/content recovery/sum of by- and degradation products were found: […]

[8] = pH and autoclavation of the 4.8-5.2 mg/ml aqueous mesylate solution; type: physicochemical
Protocol: Preferably, the formulation comprises between around 4.8 and 5.2 mg/ml solution, more preferably 5.0 mg/ml solution, of 5-(2,4-dihydroxy-5-isopropyl-phenyl)-4-(4-morpholin-4-ylmethyl-phenyl)-isoxazole-3-carboxylic acid ethylamide mesylate. The pH of such a solution is around 4.2 and therefore at the stability maximum of the mesylate salt. This surprising finding renders the solution particularly suitable for pharmaceutical use. In particular, it allows to use the solution without any other excipients, such as buffers, for stabilizing the drug substance.

[9] = Stability and crystal formation of aqueous mesylate solutions on storage; type: physicochemical
Description: The expression “free of any other salts” as used herein means that neither any salts derived from inorganic or organic acids, such as sodium chloride, as isotonic agent nor any buffer salts are present.
In one embodiment, the formulation consists of the mesylate salt of an isotonic aqueous solution of 5-(2,4-dihydroxy-5-isopropyl-phenyl)-4-(4-morpholin-4-ylmethyl-phenyl)-isoxazole-3-carboxylic acid ethylamide and 5% w/w of glucose or mannitol. […] Furthermore, the pH of such a solution prevents Maillard reactions during autoclavation of the 5% glucose solution which would lead to discoloration at neutral pH.

[10] = buffer pH 6.0 (phosphate buffer)
[11] = buffer pH 6.8 (phosphate buffer)
[12] = water, read-out: solubility in water

Molecule “5-(2,4-dihydroxy-5-isopropyl-phenyl)-4-(4-morpholin-4-ylmethyl-phenyl)-isoxazole-3-carboxylic acid ethylamide hemi fumarate [hemi fumarate salt]” has a solubility in water ([1]; water) of 0.1 to 0.25 mg/mL.
In the case of `C=CCNC1=C2C[C@@H](C)C[C@H](OC)[C@H](O)[C@@H](C)/C=C(\C)[C@H](OC(N)=O)[C@@H](OC)/C=C\C=C(/C)C(=O)NC(=CC1=O)C2=O` [Example 17-AAG, 17-allylamino-17-demethoxy-geldanamycin], the dose limiting toxicity [2] is given as “hepatic toxicity” and the solubility [3] is given as “poor solubility”.
In the case of `CCNC(=O)c1noc(-c2cc(C(C)C)c(O)cc2O)c1-c1ccc(CN2CCOCC2)cc1` [free base, 5-(2,4-Dihydroxy-5-isopropyl-phenyl)-4-(4-morpholin-4-ylmethyl-phenyl)-isoxazole-3-carboxylic acid ethylamide], the “maximum uptake of water” value ([4]; 80% relative humidity) is reported as 1.8%, the “found to be hygroscopic” value [4] is reported as “slightly hygroscopic” and the “solubility in 0.1 N HCl” value [1] is reported as 1 to 2.5 mg/mL. The solubility in water ([1]; water) was “less than 0.1 mg/ml”.
For `CCNC(=O)c1noc(-c2cc(C(C)C)c(O)cc2O)c1-c1ccc(CN2CCOCC2)cc1` [hydrochloride salt, 5-(2,4-Dihydroxy-5-isopropyl-phenyl)-4-(4-morpholin-4-ylmethyl-phenyl)-isoxazole-3-carboxylic acid ethylamide hydrochloric acid salt], the “found to be hygroscopic” value [4] was “Neither”, the “change of crystalline form by equilibration in suspension” value [5] was “did not change” and the “solubility in 0.1 N HCl” value [1] was “less than 1 mg/ml”. For the same molecule, the “solubility at pH 5” value ([1]; pH 5) was 1-2.5 mg/ml and the solubility in water ([1]; water) was 2.5 to 5 mg/mL.
For `CCNC(=O)c1noc(-c2cc(C(C)C)c(O)cc2O)c1-c1ccc(CN2CCOCC2)cc1` [mesylate salt, 5-(2,4-Dihydroxy-5-isopropyl-phenyl)-4-(4-morpholin-4-ylmethyl-phenyl)-isoxazole-3-carboxylic acid ethylamide mesylate], the “found to be hygroscopic” value ([4]; mesylate) was “Neither”, the solubility ([6]; 0.9% NaCl solution, saline or isotonic, thermodynamic from solid) was 12.8 mg/mL and the solubility ([6]; 5% glucose solution, saline or isotonic, thermodynamic from solid) was 39 mg/mL. For the same molecule, the solubility ([6]; 5% mannitol solution, saline or isotonic, thermodynamic from solid) was 39 mg/mL, the solubility ([6]; aqueous buffer, thermodynamic from solid, buffer pH 4.0 (acetate buffer)) was 14.6 mg/mL and the solubility ([6]; aqueous buffer, thermodynamic from solid, buffer pH 5.0 (acetate buffer)) was 3.2 mg/mL. It also gave a solubility ([6]; aqueous buffer, thermodynamic from solid, buffer pH 6.0 (phosphate buffer)) of 0.6 mg/mL, a solubility ([6]; aqueous buffer, thermodynamic from solid, buffer pH 7.0 (phosphate buffer)) of 0.7 mg/mL and a solubility ([6]; aqueous buffer, thermodynamic from solid, buffer pH 8.0 (borate buffer)) of 1.8 mg/mL. For the same molecule, the solubility ([6]; pH 3.6, thermodynamic from solid, Water (pH of the saturated solution=3.6)) was 37.5 mg/mL, the solubility ([6]; saline or isotonic, thermodynamic from solid, 5% glucose solution pH 4) was 35.6 mg/mL and the solubility ([6]; saline or isotonic, thermodynamic from solid, 5% glucose solution pH 7) was 37.5 mg/mL. For the same molecule, the “solubility compared with the free base (and other salts)” value [1] was “superior”, the “solubility in 0.1 N HCl” value ([1]; mesylate) was 10 to 20 mg/mL and the solubility ([1]; pH 5, aqueous buffer, pH 5, read-out: solubility at pH 5) was 1 to 2.5 mg/mL. For the same molecule, the solubility ([1]; water, pH 4, water, water at pH 4, read-out: solubility in water at pH 4) was 33.5 mg/mL, the light sensitivity (Light sensitivity) was “light sensitive” and the appearance ([7]; 0.9% NaCl) was “colorless solution”. For the same molecule, the “sum of by- and degradation products” value ([7]; 0.9% NaCl) was 0.34%, the appearance ([7]; 5% glucose solution) was “colorless solution” and the “sum of by- and degradation products” value ([7]; 5% glucose solution) was 0.34%. For the same molecule, the appearance ([7]; Water) was “colorless solution”, the “sum of by- and degradation products” value ([7]; Water) was 0.32% and the appearance ([7]; buffer pH1.0 (HCl)) was “colorless solution”. For the same molecule, the “sum of by- and degradation products” value ([7]; buffer pH1.0 (HCl)) was 2.83%, the appearance ([7]; buffer pH2.0 (citrate buffer)) was “colorless solution” and the “sum of by- and degradation products” value ([7]; buffer pH2.0 (citrate buffer)) was 0.58%. The appearance ([7]; buffer pH3.0 (citrate buffer)) was “colorless solution”, the “sum of by- and degradation products” value ([7]; buffer pH3.0 (citrate buffer)) was 0.47% and the appearance ([7]; buffer pH 4.0 (acetate buffer)) was “colorless solution”. For the same molecule, the “sum of by- and degradation products” value ([7]; buffer pH 4.0 (acetate buffer)) was 0.36%, the appearance ([7]; buffer pH 5.0 (acetate buffer)) was “colorless solution” and the “sum of by- and degradation products” value ([7]; buffer pH 5.0 (acetate buffer)) was 0.50%. The appearance [7, 10] was “colorless suspension”, the “sum of by- and degradation products” value [7, 10] was 0.49% and the appearance [7, 11] was “colorless suspension”. The “sum of by- and degradation products” value [7, 11] was 0.79%, the appearance ([7]; buffer pH8.0 (borate buffer)) was “colorless suspension” and the “sum of by- and degradation products” value ([7]; buffer pH8.0 (borate buffer)) was 0.26%. For the same molecule, the “pH of stability maximum” value ([7]; stress conditions) was 4, the “pH of the solution” value ([8]; aqueous solution, around 4.8 to 5.2 mg/ml mesylate) was “around 4.2” and the stability to autoclavation ([8]; solution of around 4.8 to 5.2 mg/ml, about 120° C., 20 to 40 minutes, around 2 bar) was “without causing any color changes or degradation products”. The “crystal formation in solution” value ([9]; in the presence of other salts (e.g. sodium chloride, buffer salts)) was “crystals are formed sooner or later”, the “chemical stability in formulation” value ([9]; isotonic aqueous solution with 5% w/w of glucose or mannitol) was “chemically stable” and the “crystal formation on storage” value ([9]; isotonic aqueous solution with 5% w/w of glucose or mannitol, longer storage time, e.g. several months) was “crystal formation can be avoided”.
For `CCNC(=O)c1noc(-c2cc(C(C)C)c(O)cc2O)c1-c1ccc(CN2CCOCC2)cc1.O=P(O)(O)O` [phosphate salt, 5-(2,4-dihydroxy-5-isopropyl-phenyl)-4-(4-morpholin-4-ylmethyl-phenyl)-isoxazole-3-carboxylic acid ethylamide phosphate], the solubility [1, 12] was 0.5 to 1 mg/mL.
For `CCNC(=O)c1noc(-c2cc(C(C)C)c(O)cc2O)c1-c1ccc(CN2CCOCC2)cc1.O=C(O)C(O)C(O)C(=O)O` [tartrate salt, 5-(2,4-dihydroxy-5-isopropyl-phenyl)-4-(4-morpholin-4-ylmethyl-phenyl)-isoxazole-3-carboxylic acid ethylamide tartrate], the solubility [1, 12] was greater than 2 mg/mL.
